Measurements published in patent US9738902B2, “Modified PYR/PYL receptors activated by ligands” (priority 2013, dated 2017).

What was measured:
[1] = target: T1, GST-ABI2 with 6×-His-PYR1^MANDI (Arabidopsis thaliana, UniProt O49686, F108A/F159L/K59R/S122G/V81I/Y58H); assay: PP2C enzyme inhibition assay (4-methylumbelliferyl-phosphate); type: biochemical; conditions: 100 nM 6×-His-PYR1^MANDI, 50 nM GST-PP2C; read-out: IC50, mandipropamid mediated inhibition of ABI2
T1 construct: made in house; host or cells: E. coli BL21[DE3]pLysS (receptor)
Procedure: We next characterized the effects of recombinant PYR1^MANDI on PP2C activity using the fluorogenic substrate 4-methylumbelliferyl-phosphate. Recombinant receptor and PP2C proteins were prepared as described above and used to examine PP2C inactivation in response to mandipropamid or ABA. Enzyme inhibition assays were conducted using the following assay conditions: 100 nM 6×-His-PYR1^MANDI, 50 nM GST-PP2C, 100 mM Tris-OAc (pH 7.9), 100 mM NaCl, 1 mM MnCl2, 1% β-mercaptoethanol. […] The three ABA-regulated clade A PP2Cs, GST-HAB1, GST-ABI1 and GST-ABI2 were each tested under the same enzyme conditions in separate reactions. The assays were conducted at a variety of mandipropamid or ABA concentrations so that IC50 values could be determined. […] Thus, the PYR1^MANDI receptor is highly sensitive to activation by mandipropamid and interacts with multiple clade A PP2Cs in response to mandipropamid. This high level of sensitivity is consistent with the yeast two hybrid results described above in which a detectable interaction between PYR1^MANDI and HAB1 could be observed at concentrations as low as 2 nM (see Table 1). We note that the yeast two hybrid reporter systems requires only a small percentage of PYR1^MANDI receptors to bind HAB1 for an interaction signal and is therefore a potentially more sensitive indicator than in vitro assays. […] Thus these in vitro assays confirm that PYR1^MANDI is selectively activated by mandipropamid.

[2] = test system: homozygous PYR1^MANDI expressing transgenic plants; assay: thermal imaging of leaf temperature; type: in vivo, Arabidopsis
Procedure: To investigate if the system is sufficient to control ABA responses in vegetative tissues, we generated homozygous transgenic lines for two 35S-driven lines (E15 and E16) and 2 RBCS-driven lines (F29 and F34). These materials were grown along side wild type plants and a previously constructed 35S::GFP-PYR1 over expression line (Park et al., 2009). These plants were grown until three weeks old and then treated with a solution containing either 2 μM mandipropamid and 0.02% Silwet or a mock treatment containing 0.02% Silwet and the mandipropamid carrier solvent (DMSO). 24 hours after treatment, the leaf temperatures were examined using a thermal imaging camera. It is well known that ABA-induced guard cell closure reduces transpiration, which leads to increases in leaf temperatures. […] Since guard cell aperture is the primary determinant of transpiration rates, thermal imaging is a useful way to indirectly infer relative transpiration rates and guard cell aperture at the whole plant level. As is shown in FIG. 3, mandipropamid treatment of homozygous PYR1^MANDI expressing transgenic plants leads to large changes in leaf temperature (˜2° C. increase) within 24 hours of treatment.
Treatment of plants with abscisic acid leads to the induction of CYP707A cytochrome P450s, which hydroxylate ABA at its 8′ methyl group. […] Thus, ABA applications lose effect over time due to metabolic inactivation. Given that mandipropamid is a non-native molecule, it is likely not a degraded by the CYP707A enzyme system. […] Plants were treated with mock, 1, 5 or 20 μM mandipropamid and then analyzed by thermography at 4 hours, 3 and 6 days after treatment. […] Additionally, control and 1 μM treated plants flowered during the experiment while flowering was prevented in the 5 μM and 20 μM treated mandipropamid plants.

[3] = target: T2, PYR1 K59R V81I F108A S122G A160V (Arabidopsis thaliana, UniProt O49686, A160V/F108A/K59R/S122G/V81I); assay: Y2H Combinatorial Mutagenesis II (HAB1, X-gal); type: cell-based
T2 construct: expressed in transfected cells; host or cells: S. cerevisiae Y190 pACT-HAB1
Description: (§1) Both of the above optimization experiments led to the identification of the following mutations that, when introduced one at a time, enhance the mandipropamid sensitivity of PYR1^K59R,F108A,S122G: Y58H, V81C, V81I, V81T, V83L, L87A, F159L, F159M, F159V, A160V and V164I. Given that these each enhance sensitivity on their own, we tested if combinations of these mutations might generate more sensitive receptors. Mutagenic primers for each of the mutations were designed and used simultaneously with the QuickChange Lightning Multi Site-Directed Mutagenesis kit (Agilent, USA) with PYR1^K59R,F108A,S122G template DNA. Individual clones were sequenced to identify bona fide combination mutants, which were transformed into the Y190 pACT-HAB1 yeast strain and assayed for mandipropamid sensitivity. These efforts led to the identification of several improved receptors (“Combinatorial Mutagenesis Screen II”, Table 1), including PYR1^Y58H,K59R,V81I,F108A,S122G,F159L, a hextuple mutant that we have named PYR1^MANDI. Yeast reporter strains expressing this mutant are responsive to mandipropamid concentrations as low as 2 nM (Table 1). Thus, the 5-step mutagenesis protocol we followed led to the construction of a mandipropamid responsive receptor with nanomolar sensitivity.

[4] = target: T3, PYR1 Y58H K59R V81I F108A S122G F150L (PYR1^MANDI) (Arabidopsis thaliana, UniProt O49686, F108A/F159L/K59R/S122G/V81I/Y58H); assay: Y2H Combinatorial Mutagenesis II (HAB1, X-gal); type: cell-based; conditions: PYR1^MANDI, yeast two hybrid
T3 construct: expressed in transfected cells; host or cells: S. cerevisiae Y190 pACT-HAB1
Description: as §1

[5] = target: T4, PYR1 Y58H K59R V81I F108A S122G (Arabidopsis thaliana, UniProt O49686, F108A/K59R/S122G/V81I/Y58H); assay: Y2H Combinatorial Mutagenesis II (HAB1, X-gal); type: cell-based
T4 construct: expressed in transfected cells; host or cells: S. cerevisiae Y190 pACT-HAB1
Description: as §1

[6] = target: T5, PYR1 Y58H K59R V81I F108A S122G V164I (Arabidopsis thaliana, UniProt O49686, F108A/K59R/S122G/V164I/V81I/Y58H); assay: Y2H Combinatorial Mutagenesis II (HAB1, X-gal); type: cell-based
T5 construct: expressed in transfected cells; host or cells: S. cerevisiae Y190 pACT-HAB1
Description: as §1

[7] = target: T6, PYR1 Y58H K59R V83L F108A S122G (Arabidopsis thaliana, UniProt O49686, F108A/K59R/S122G/V83L/Y58H); assay: Y2H Combinatorial Mutagenesis II (HAB1, X-gal); type: cell-based
T6 construct: expressed in transfected cells; host or cells: S. cerevisiae Y190 pACT-HAB1
Description: as §1

[8] = target: T7, PYR1 Y58H K59R V81I F108A S122G (PYR1^MANDI) (Arabidopsis thaliana, UniProt O49686, F108A/F159L/K59R/S122G/V81I/Y58H); assay: Y2H Combinatorial Mutagenesis II (HAB1, X-gal); type: cell-based; conditions: Y58H K59R V81I F108A S122G F150L
T7 construct: expressed in transfected cells; host or cells: S. cerevisiae Y190 pACT-HAB1
Description: as §1

T5 sequence (O49686 whole entry Y58H/K59R/V81I/F108A/S122G/V164I): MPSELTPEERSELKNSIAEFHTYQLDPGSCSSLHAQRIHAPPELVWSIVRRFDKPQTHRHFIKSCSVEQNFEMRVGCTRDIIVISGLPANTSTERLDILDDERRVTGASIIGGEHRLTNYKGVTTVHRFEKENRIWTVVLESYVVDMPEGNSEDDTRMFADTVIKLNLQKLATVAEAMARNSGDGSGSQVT
T5 sequence (Q9CAJ0 23-511 partner): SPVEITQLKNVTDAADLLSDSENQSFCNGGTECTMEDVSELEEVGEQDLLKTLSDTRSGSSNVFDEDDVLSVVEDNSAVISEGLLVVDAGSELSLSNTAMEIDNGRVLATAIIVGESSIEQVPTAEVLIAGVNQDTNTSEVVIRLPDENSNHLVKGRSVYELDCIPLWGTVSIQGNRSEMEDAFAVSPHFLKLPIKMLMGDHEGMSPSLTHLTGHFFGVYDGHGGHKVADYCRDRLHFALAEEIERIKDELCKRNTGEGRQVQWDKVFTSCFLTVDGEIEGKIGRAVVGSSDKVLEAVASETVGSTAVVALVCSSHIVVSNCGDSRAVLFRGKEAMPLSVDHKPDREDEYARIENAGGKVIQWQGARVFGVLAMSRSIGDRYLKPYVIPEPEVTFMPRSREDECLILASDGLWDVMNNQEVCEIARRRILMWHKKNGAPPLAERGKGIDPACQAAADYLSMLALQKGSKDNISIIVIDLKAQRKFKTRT
T6 sequence (O49686 whole entry Y58H/K59R/V83L/F108A/S122G): as the sequence (O49686 whole entry Y58H/K59R/V81I/F108A/S122G/V164I) above, with I81V, V83L, I164V counted along it
T6 sequence (Q9CAJ0 23-511 partner): as the sequence (Q9CAJ0 23-511 partner) above
T2 sequence (O49686 whole entry K59R/V81I/F108A/S122G/A160V): as the sequence (O49686 whole entry Y58H/K59R/V81I/F108A/S122G/V164I) above, with H58Y, A160V, I164V counted along it
T2 sequence (Q9CAJ0 23-511 partner): as the sequence (Q9CAJ0 23-511 partner) above
T3 sequence (O49686 whole entry Y58H/K59R/V81I/F108A/S122G/F159L): as the sequence (O49686 whole entry Y58H/K59R/V81I/F108A/S122G/V164I) above, with F159L, I164V counted along it
T3 sequence (Q9CAJ0 23-511 partner): as the sequence (Q9CAJ0 23-511 partner) above
T7 sequence (O49686 whole entry Y58H/K59R/V81I/F108A/S122G/F159L): as the sequence (O49686 whole entry Y58H/K59R/V81I/F108A/S122G/V164I) above, with F159L, I164V counted along it
T7 sequence (Q9CAJ0 23-511 partner): as the sequence (Q9CAJ0 23-511 partner) above
T1 sequence (O49686 whole entry Y58H/K59R/V81I/F108A/S122G/F159L): as the sequence (O49686 whole entry Y58H/K59R/V81I/F108A/S122G/V164I) above, with F159L, I164V counted along it
T1 sequence (O04719 whole entry partner): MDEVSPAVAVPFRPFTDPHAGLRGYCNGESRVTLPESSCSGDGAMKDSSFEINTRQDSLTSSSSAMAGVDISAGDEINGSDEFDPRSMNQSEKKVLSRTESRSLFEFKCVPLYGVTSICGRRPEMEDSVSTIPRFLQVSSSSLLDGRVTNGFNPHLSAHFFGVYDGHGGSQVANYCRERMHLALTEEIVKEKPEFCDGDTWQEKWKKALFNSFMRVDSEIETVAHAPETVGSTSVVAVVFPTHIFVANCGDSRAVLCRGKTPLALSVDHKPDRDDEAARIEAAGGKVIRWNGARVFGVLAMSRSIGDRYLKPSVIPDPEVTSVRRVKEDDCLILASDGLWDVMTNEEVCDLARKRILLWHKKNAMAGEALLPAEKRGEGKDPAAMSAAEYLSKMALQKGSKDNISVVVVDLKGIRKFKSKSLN
T4 sequence (O49686 whole entry Y58H/K59R/V81I/F108A/S122G): as the sequence (O49686 whole entry Y58H/K59R/V81I/F108A/S122G/V164I) above, with I164V counted along it
T4 sequence (Q9CAJ0 23-511 partner): as the sequence (Q9CAJ0 23-511 partner) above

For C#CCOc1ccc(CCNC(=O)C(OCC#C)c2ccc(Cl)cc2)cc1OC (centres unmarked) [Mandipropamid, mandipropamid], the IC50 [1] was 75.5 nM, the “flowering during the experiment” value ([2]; 1 μM mandipropamid) was “flowered” and the leaf temperature increase ([2]; 2 μM mandipropamid, within 24 hours of treatment) was roughly 2 °C. The “flowering during the experiment” value ([2]; 5 μM mandipropamid) was “prevented”, the “persistence of increased leaf temperature” value ([2]; 5 μM mandipropamid) was “at least 6 days” and the “flowering during the experiment” value ([2]; 20 μM mandipropamid) was “prevented”. The “persistence of increased leaf temperature” value ([2]; 20 μM mandipropamid) was “at least 6 days”, the “time to increased leaf temperature after treatment” value ([2]; mandipropamid treatment) was no more than 4 h and the Threshold [3] was 0.05 µM. The “lowest mandipropamid concentration with detectable PYR1^MANDI-HAB1 interaction in yeast reporter strain” value [4] was 2 nM, the Threshold [5] was 0.05 µM and the Threshold [6] was 0.01 µM. For the same compound, the Threshold [7] was 0.01 µM and the Threshold [8] was 0.002 µM.
